From patent publication US20210163489A1, “PYRAZOLOPYRIMIDINE DERIVATIVES AND THE COMPOSITIONS AND METHODS OF TREATMENT REGARDING THE SAME” (NysnoBio Ireland DAC, priority 2016, published 2021) come the findings set out here.

In one data set the target is T1, Parkin ligase (Homo sapiens, UniProt O60260).
T1 construct: Enzyme: Parkin-His tagged 203 μM (10.5 mg/ml)
T1 sequence (O60260 1-465): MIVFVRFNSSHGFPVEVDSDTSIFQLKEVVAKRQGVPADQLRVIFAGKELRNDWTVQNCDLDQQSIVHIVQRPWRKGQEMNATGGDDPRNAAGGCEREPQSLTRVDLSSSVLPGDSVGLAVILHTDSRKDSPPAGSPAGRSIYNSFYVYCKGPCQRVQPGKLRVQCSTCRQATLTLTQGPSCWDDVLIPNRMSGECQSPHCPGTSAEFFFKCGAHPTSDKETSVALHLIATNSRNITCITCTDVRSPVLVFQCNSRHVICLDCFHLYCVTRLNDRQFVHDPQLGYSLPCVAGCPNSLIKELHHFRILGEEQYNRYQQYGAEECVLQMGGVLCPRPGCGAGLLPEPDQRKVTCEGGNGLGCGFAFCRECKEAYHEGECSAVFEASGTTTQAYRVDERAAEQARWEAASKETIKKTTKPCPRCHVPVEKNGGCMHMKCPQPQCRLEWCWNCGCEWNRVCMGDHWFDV
The data set is described as follows: Activity-based probe assay using an ubiquitin vinyl sulfone probe (TR-FRET). In kind it is biochemical. Conditions: activation of heat activated Parkin, HA-Ub-VS probe; read-out: Probe Assay EC50 (μM) [Example 2]. On the procedure:
An Ubiquitin vinyl sulfone probe can be used that irreversibly binds to the active site cysteine of Parkin ligase. Covalent attachment of the probe to the Parkin can be monitored by TR-FRET. Candidate activator compounds can be identified by increasing the activity of Parkin ligase due to an increase in TR-FRET signal. Screening for activating compounds can be distinguished from the controls as follows:
100% activation signal=Heat activated Parkin+100 nM control activator in DMSO. 0% activation signal=Heat activated Parkin+DMSO only. Parkin activators can be identified by an increase of the 0% activation signal TR-FRET signal.
• Assay Plate: White 384 well plate (Corning 3572) • Enzyme: Parkin-His tagged 203 μM (10.5 mg/ml) • Probe: Ubiquitin vinyl-sulfone (HA-Ub-VS Boston Biochem U-212) • DMSO: DMSO (Sigma cat # D4540-100ML) • Reaction Buffer: 50 mM HEPES (pH 8.5), 150 mM NaCl, 0.01% Tween 20, 0.1% BSA • Detection Buffer: 50 mM HEPES (pH 8.5), 150 mM NaCl, 0.01% Tween 20, 0.1% BSA, 800 mM KF • Detection Reagent A: 2.6 nM Anti-6HIS-Eu cryptate and 40 nM Anti-HA-XL665 in detection buffer • Eu cryptate: Anti-6HIS-Eu cryptate (CisBio 61HISKLA) • XL665: Anti-HA-XL665 (CisBio 610HAXLA) Enzyme Reaction (15 min Pre Incubation Parkin with Activator Only) • Parkin: 40 nM • HA-Ub-VS Probe: 70 nM • Activator/DMSO: 2× Activator/2% DMSO • Reaction time: 60 minutes • Temperature: 22° C. • Total volume: 10 μl reaction
• Take 10 μl of Enzyme Reaction above and add 10 μl detection Reagent A under the following conditions: • Reaction time: 60 minutes • Temperature: 22° C. • Total volume: 20 μl
Assay procedure (Using HP D-300 compound dispenser and Bravo for the operation):
1) Heat activate Parkin in reaction buffer (500 μl/1.5 ml tube: Eppendorf Thermomixer 5 minutes, 400 rpm at 58° C. and put on ice until needed). 2) Load assay plate wells with 4.8 μl 84.5 nM Parkin in reaction buffer by use of Bravo. 3) Deliver 0.2 μl 200× activator candidates in DMSO by use of HP D-300 compound dispenser. Highest 200× concentration=20 μm and then twofold dilutions. 4) Spin 1000 rpm, 2 minutes, at room temp. 5) Incubate plate for 15 minutes at room temp. 6) Add 5 μl 140 nM HA-Ub-VS Probe in reaction buffer by use of Bravo. 7) Spin 1000 rpm, 2 minutes, at room temp. 8) Incubate plate for 60 minutes at room temp. 9) Add 10 μl 2.6 nM Anti-6HIS-Eu cryptate and 40 nM Anti-HA-XL665 in detection buffer. 10) Spin 1000 rpm, 2 minutes, at room temp. 11) Incubate plate for 60 minutes at room temp. 12) Read plates on Perkin Elmer Envision instrument with the following parameters:
(§1) LANCE dual laser protocol loaded into the Envision® software
(§2) Top Mirror: LANCE/DELFIA Duel/Bias (Bar code 446) Emission Filter: APC 665 EM (Bar code 205) 2nd Emission Filter: Europium 615 EM (Bar code 203) Read […] (channel 1) and 615 nm (channel 2) wavelengths on Envision®
(§3) Data Analysis: The Data can be read in CSV files. There are two tables in those CSV files, which are the values of 655 nm (channel 1) and 615 nm (channel 2) wavelengths respectively. The data is converted to an HTRF Ratio=(Channel 1/Channel 2)*10,000
The average of all the 0 uM controls (DMSO only)=BKGD (Background—0% activation). Subtract BKGD from each HTRF Ratio value=HTRF-BKGD. The average of all the […] 100 nM control activator in DMSO controls=Max (100% activation). The following equation is then used to calculate % Activation for each well/candidate as follows: % Activation=(HTRF−BKGD/Max)*100.
Graphpad Prisim was used with Transform X values: X=Log(X) and nonlinear regression (dose-response-stimulation): Log(agonist) vs Response—variable slope (four parameters) with constrains set to Bottom=0 and Top=100.
On the technique in general: Time-resolved FRET reads energy transfer from a long-lived donor to a nearby acceptor.

A short description of data set [1]: Metabolic stability in rat liver microsomes (RLM). In kind it is in vitro ADME. Conditions: 1 μM compound, 1.0 mg/mL microsome, NADPH. On the procedure: Compounds were also tested for metabolic stability in both rat liver microsomes (RLM) and human liver microsomes (HLM) and their half-life calculated (See Table 6). The assay was performed as follows. The total volume for each incubation was 250 μL. A 100 μM DMSO solution of compound (diluted from 10 mM stock solution) was spiked into 50 mM KH2PO4 (pH 7.4) buffer containing liver microsome at a concentration of 1.0 mg/mL. The reaction was initiated by the addition of 50 μL of 1 mM NADPH. The final concentration of each compound was 1 μM (1% DMSO). The positive controls, phenacetin for CYP1A2, diclofenac for CYP2C9, omeprazole for CYP2C19, dextromethorphan for CYP2D6 and midazolam for CYP3A4 were added to a separate tube with the final substrate concentrations of 1 μM (1% DMSO) for evaluating the enzyme activities in the liver microsomes. At 0, 15, 30 and 60 min, an aliquot of 15 μL reaction mixtures were removed and 200 μL of methanol (with internal standard of 25 ng/mL propranolol) was added to quench the reaction. The resulting mixture was centrifuged and supernatant was used for LC-MS/MS analysis.
The signals for each compound, or the metabolites for the probe substrates and the internal standard were integrated and the peak area ratios to internal standard were generated. Percent parent remaining at a specified timepoint was calculated based on the peak area ratios at time 0 (as 100%) for in vitro metabolic stability studies in liver microsome and hepatocyte. The observed rate constant (kobs) for the metabolism of substrates was calculated by plotting the natural log of percentage substrate remaining versus time of incubation with the slope being kobs. The half-life (T1/2) was calculated according to the following equation: […]
In general terms: Liver microsomes are vesicles of endoplasmic reticulum, rich in cytochrome P450 enzymes.

The target in another data set is T2, Parkin (Homo sapiens, UniProt O60260).
T2 construct: Enzyme 3: Parkin-His tagged 203 μM (10.5 mg/ml)
The data set is described as follows: Parkin pUB auto-ubiquitinylation assay (TR-FRET). Type of data set: biochemical. The settings on record: activation of pUb activated Parkin; read-out: Auto-ubiq EC50 (μM) [Example 3].
Description: A Parkin pUB Auto-ubiquitinylation Assay is used to evaluate a compound's potency to activate Parkin's ability to Auto-ubiquitinylate itself.
The principle of this assay is that the E3 Ligase Parkin catalyzes the transfer of Ubiquitin to target proteins, but also has the ability to auto-ubiquitinylate itself. The phospho-Ubiquition (pUb) added to the assay alters the Parkin to a state where small molecule activators can enable the Parkin to auto-ubiquitinylate though the E1-E2 cascade reaction. The use of a Eu cryptate Ubiquition and anti 6His-d2 that binds to the His tagged Parkin will give a signal when the Eu cryptate Ubiquition is auto-ubiquitinylate onto the Parkin which can be monitored by TR-FRET.
Similar to the Activity-based probe assay in Example 2, screening for activating compounds can be distinguished from the controls as follows:
100% activation signal=pUb activated Parkin+40 nM control activator in DMSO. 0% activation signal=pUb activated Parkin+DMSO only. Parkin activators can be identified by an increase of the 0% activation signal TR-FRET signal.
• Assay Plate: White 384 well plate (Corning 3572) • Enzyme 1: E1 (Ubiquitin-activating enzyme/UBE1 Boston Biochem E-305) • Enzyme 2: E2 (UBcH7/Ube2L3 Boston Biochem E2-640) • Enzyme 3: Parkin-His tagged 203 μM (10.5 mg/ml) • pUb: Phospho-Ubiquitin (S65) (Boston Biochem U-102) • Eu Cryptate Reagent: Ubiquitin Eu (CisBio 61UBIKLA) • DMSO: DMSO (Sigma-34869-2.5L) • Reaction Buffer: 50 mM HEPES, 50 mM NaCl, 1 mM MgCl2, 0.005% Tween 20, 0.1% • PF-127 (Fisher Scientific 50-310-494), pH 8.5 • Detection Buffer: 50 mM HEPES, 50 mM NaCl, 800 mM KF, 5 mM EDTA, 0.005% • Tween 20, 0.1% PF-127, pH 8.5 • Detection Reagent Z: 13.4 nM Anti-6His-d2 in detection buffer • d2 Reagent: Anti-6His-d2 (CisBio 61HISDLA)
Enzyme Reaction (15 min Pre-Incubation with Parkin, pUb and Activator Only) • Parkin: 196 nM • pUb: 196 nM • DMSO: 1% DMSO • E1: 5 nM • E2: 50 nM • Ubiquitin Eu: 8.8 nM • Reaction time: 120 minutes • Temperature: 22° C. • Total volume: 10 μl reaction
Take 10 μl of Enzyme Reaction above and add 10 μl detection Reagent Z under the following conditions:
Reaction time: 60 minutes
1) Load assay plate wells with 4.9 μl 400.0 nM Parkin, 400 nM pUb in reaction buffer by use of Eppendorf 12-channel pipette. 2) Deliver 0.1 μl 100× activator candidates in DMSO by use of Echo 555 compound dispenser. Highest 100× concentration=100 μm and then twofold dilutions. Add each compound and control in duplicate wells. 3) Spin 1000 rpm, 2 minutes, at room temp. 4) Incubate plate for 15 minutes at room temp. 5) Add 5 μl 10 nM E1, 100 nM E2, 17.6 nM Ubiquitin Eu and 2 mM ATP in Reaction Buffer by use of Eppendorf 12-channel pipette. 6) Spin 1000 rpm, 2 minutes, at room temp. 7) Incubate plate for 120 minutes at room temp. 8) Add 10 μl 13.4 nM anti his d2 in detection buffer by use of Eppendorf 12-channel pipette. 9) Spin 1000 rpm, 2 minutes, at room temp. 10) Incubate plate for 120 minutes at room temp. 11) Read plates on Perkin Elmer Envision instrument with the following parameters:
as §1, §2, §3
The average of all the 0 uM controls (DMSO only)=BKGD (Background—0% activation). Subtract BKGD from each HTRF Ratio value=HTRF-BKGD. The average of all the 100 uM control activator in DMSO controls=Max (100% activation). The following equation is then used to calculate % Activation for each well/candidate as follows: % Activation=(HTRF−BKGD/Max)*100.
XLFIT5 model 205 was applied for the data analysis. […]

As for `COc1ccc(-c2cnc3c(O)cc(C)nn23)cc1` [Compound V3], the EC50 at Parkin ligase was above 100 µM.
With `COc1ccc(-c2cnc3c(S)cc(C)nn23)cc1` [Compound T3], the “RLM t1/2” value in data set [1] amounted to 96.0 min.
With `COc1ccc(-c2cnc3c(S)cc(C)nn23)cc1` [Compound Q3], the EC50 at Parkin is above 40 µM. Moreover, the “RLM t1/2” value in data set [1] worked out at 6.0 min.
Regarding `Cc1ccc(-c2cnc3c(O)cc(C)nn23)cc1` [Compound U3], the EC50 at Parkin ligase is above 100 µM.
Still for that read-out and setting: with `COc1ccc(-c2cnn3c(O)c4c(nc23)CN(C)CC4)cc1` [Compound R3] the figure was above 100 µM.

In general, EC50 refers to the concentration that produces a half-maximal response.
